Like-named read-outs stand apart in the source and are kept apart here. Values belong to the compound of their own block, whether it stands above or below them.
Assays:
adjuvant arthritis [1] = experiment: Adjuvant-induced arthritis in rats, paw swelling of left hind leg (Test Example 1); type: in vivo, Lewis male rat; settings: oral once a day for 21 days; for Swelling rate: left hind leg, 21st day after arthritis induction; for Inhibition rate: vs control swelling rate, 21st day
Method: A suspension of dead Mycobacterium tuberculosis in liquid paraffin (0.6 mg/0.1 mL) was intradermally injected in the plantar region of left hind paw of each Lewis male rat to induce adjuvant arthritis. The paw volumes of both hind legs were measured using a plethysmometer on a daily basis from before to after the induction of arthritis. The test substances were separately suspended or dissolved in 0.5% aqueous methylcellulose solutions to prepare dosing solutions, which were orally administered once a day for 21 days from immediately after the adjuvant injection. In the case of combined administration, both test substances were simultaneously administered.
The dose of iguratimod was set to 3 mg/kg, while the dose of methotrexate was set to 0.1 mg/kg. Alternatively, 3 mg/kg iguratimod and 0.1 mg/kg methotrexate were administered in combination.
1 mL of 0.5% aqueous methylcellulose solution per 100 g of body weight was orally administered to an untreated normal group and a control group that received no test substance after the induction of arthritis.
On the day after the final administration (on the 21st day after the induction of arthritis), the paw volume of the left hind leg was measured for each group. Subsequently, peripheral blood was collected therefrom, and the reticulocyte count was measured.

adjuvant arthritis [2] = experiment: Adjuvant-induced arthritis in rats, paw swelling of both hind legs, therapeutic dosing (Test Example 2); type: in vivo, Lewis male rat; settings: oral once a day for 7 days from day 18, 25th day; for Swelling rate: average of both hind legs; for Inhibition rate: vs control swelling rate
Method: A suspension of dead Mycobacterium tuberculosis in liquid paraffin (0.6 mg/0.1 mL) was intradermally injected to the base of tail of each Lewis male rat to induce adjuvant arthritis. On the 18th day after the induction of arthritis, the paw volumes of both hind legs were measured. The rats were grouped so that the paw volumes of both hind legs averaged out per group. The test substances were separately suspended or dissolved in 0.5% aqueous methylcellulose solutions to prepare dosing solutions, which were orally administered once a day for 7 days from the grouping date. In the case of combined administration, both test substances were simultaneously administered through an oral route.
The dose of iguratimod was set to 1 mg/kg, while the dose of prednisolone was set to 5 mg/kg. Alternatively, 1 mg/kg iguratimod and 5 mg/kg prednisolone were orally administered in combination.
1 mL of 0.5% aqueous methylcellulose solution per 100 g of body weight was orally administered to a control group that received no test substance after the grouping.
On the day after the final administration (on the 25th day after the induction of arthritis), the paw volumes of both hind legs were measured for each group. Subsequently, the rats were killed by blood removal. Then, their thymus glands, spleens, and adrenal glands were extirpated, and the weights were measured to calculate the ratio of each organ weight to 100 g body weight.

HepG2 cells [3] = settings: human, 24 h
Method: (§1) HepG2 cells floating in a Dulbecco's modified Eagle's medium (DMEM) containing 10% fetal bovine serum (FBS) were inoculated at a concentration of 3.5×10^4 cells/0.1 mL/well to a 96-well plate and cultured at 37° C. for approximately 24 hours in a 5% CO2 atmosphere. Then, the medium was replaced by DMEM containing iguratimod and methotrexate and containing 0.5% FBS, and the cells were further cultured therein for 24 hours. In this context, iguratimod was dissolved in a 1.12-fold molar quantity of 0.1 mol/L sodium hydroxide solution, diluted with distilled water, and then added to the culture solution. Methotrexate was dissolved in dimethyl sulfoxide (DMSO) and added to the culture solution. Test substance-free DMEM containing 0.25% DMSO and 0.5% FBS was used in a control group.
(§2) After the completion of culture, each culture supernatant was separated, and the activity of lactate dehydrogenase (LDH) released outside the cells was determined using Cytotoxicity Detection Kit (LDH) (Roche Applied Science). In order to determine LDH activity in the whole cells, 0.1 mL of DMEM containing 2% Triton X-100 and 0.5% FBS was then added to each well after the culture supernatant separation to prepare a cell lysate. The LDH activity was determined in the same way as above.
(§3) The rate of LDH release (%) was calculated according to the formula shown below and indicated by the average value of each group. Its ratio with respect to the control group was also determined. Rate of LDH release (%)=Activity in the culture supernatant/(Activity in the culture supernatant+Activity in the cell lysate)×100

HepG2 cells [4] = experiment: Cellular damage of HepG2 cells, LDH release (Test Example 3); settings: iguratimod 0, HepG2, 24 hours; for Rate of LDH release: control 14.2
Method: as §1, §2, §3

Rate of LDH release (HepG2 cells [3]; 3 μg/mL): 15.9% | Rate of LDH release, ratio to control group (HepG2 cells [3]; 3 μg/mL): 112% | Rate of LDH release (HepG2 cells [3]; 30 μg/mL): 17.0% | Rate of LDH release, ratio to control group (HepG2 cells [3]; 30 μg/mL): 120%
Structure (SMILES): CS(=O)(=O)Nc1cc2occ(NC=O)c(=O)c2cc1Oc1ccccc1 [Iguratimod, N-[7-[(methanesulfonyl)amino]-4-oxo-6-phenoxy-4H-1-benzopyran-3-yl]formamide]
Swelling rate (adjuvant arthritis [1]; iguratimod 3 mg/kg): 93% | Inhibition rate (adjuvant arthritis [1]; iguratimod 3 mg/kg): 40% | Swelling rate (adjuvant arthritis [2]; iguratimod 1 mg/kg): 76% | Inhibition rate (adjuvant arthritis [2]; iguratimod 1 mg/kg): 28%

Structure (SMILES): CN(Cc1cnc2nc(N)nc(N)c2n1)c1ccc(C(=O)N[C@@H](CCC(=O)O)C(=O)O)cc1 [Methotrexate, methotrexate]
Swelling rate (adjuvant arthritis [1]; methotrexate 0.1 mg/kg): 114% | Inhibition rate (adjuvant arthritis [1]; methotrexate 0.1 mg/kg): 26% | Rate of LDH release, ratio to control group (HepG2 cells [4]; methotrexate 1 μg/mL): 172% | Rate of LDH release (HepG2 cells [4]; methotrexate 1 μg/mL): 24.4% | Rate of LDH release, ratio to control group (HepG2 cells [4]; methotrexate 10 μg/mL): 189% | Rate of LDH release (HepG2 cells [4]; methotrexate 10 μg/mL): 26.8%

Structure (SMILES): C[C@]12C=CC(=O)C=C1CC[C@@H]1[C@@H]2[C@@H](O)C[C@@]2(C)[C@H]1CC[C@]2(O)C(=O)CO [Prednisolone, prednisolone]
Swelling rate (adjuvant arthritis [2]; prednisolone 5 mg/kg): 66% | Inhibition rate (adjuvant arthritis [2]; prednisolone 5 mg/kg): 37%
